The source of these data is ChEMBL document CHEMBL1255213, “Bottromycin derivatives: efficient chemical modifications of the ester moiety and evaluation of anti-MRSA and anti-VRE activities” (2010).

What all share (type): functional
The subject of assay [1] is Staphylococcus aureus. In words: Antimicrobial activity against Staphylococcus aureus FDA209P by standard serial-dilution technique.
For assay [2], the system named is Staphylococcus aureus. In words: Antimicrobial activity against Staphylococcus aureus Smith by standard serial-dilution technique.
Assay [3] has as its system Staphylococcus aureus. The assay can be described thus: Antimicrobial activity against methicillin-resistant Staphylococcus aureus HH1 by standard serial-dilution technique.
The test system of assay [4] is Staphylococcus aureus. In words: Antimicrobial activity against methicillin-resistant Staphylococcus aureus 92-1191 by standard serial-dilution technique.
The subject of assay [5] is Enterococcus faecium. In words: Antimicrobial activity against Enterococcus faecium NCTC 12201 by standard serial-dilution technique.
For assay [6], the system named is Enterococcus faecium. In words: Antimicrobial activity against Enterococcus faecium NCTC 12203 by standard serial-dilution technique.
For assay [7], the system named is Staphylococcus aureus. The assay can be described thus: Antimicrobial activity against methicillin-resistant Staphylococcus aureus assessed as rate of residual activity. The arrangement: concentration or dose not given beside the values.

Converted amounts (≈) assume the structure as drawn. Some results are limits rather than exact numbers.

By MIC is commonly meant the least concentration at which growth counts as inhibited. Take `CC(C)[C@@H]1NC(=O)[C@@H]2[C@H](C)CCN2C(=O)CN/C(=N\[C@H](C(=O)N[C@H](C(=O)N[C@H](CC(=O)N2CCSC2)c2nccs2)[C@@H](C)c2ccccc2)C(C)(C)C)[C@H](C(C)(C)C)NC1=O`: the MIC stood at 4 µg/mL (≈ 4.54 µM) against Staphylococcus aureus [1]; 4 µg/mL (≈ 4.54 µM) against Staphylococcus aureus [2]; 8 µg/mL (≈ 9.09 µM) in the assay on Staphylococcus aureus [3]; 8 µg/mL (≈ 9.09 µM) in the assay with Staphylococcus aureus [4]; 8 µg/mL (≈ 9.09 µM) with Enterococcus faecium [5]; 2 µg/mL (≈ 2.27 µM) against Enterococcus faecium [6]. Besides, in the assay on Staphylococcus aureus [7], the Activity stood at 100%.
With `CC(C)[C@@H]1NC(=O)[C@@H]2[C@H](C)CCN2C(=O)CN/C(=N\[C@H](C(=O)N[C@H](C(=O)N[C@H](CC(=O)N2CCSCC2)c2nccs2)[C@@H](C)c2ccccc2)C(C)(C)C)[C@H](C(C)(C)C)NC1=O`, the minimal inhibitory concentration (MIC) with Staphylococcus aureus [1] was found to be 8 µg/mL (≈ 8.95 µM); against Staphylococcus aureus [2], 4 µg/mL (≈ 4.47 µM); in the assay with Staphylococcus aureus [3], 8 µg/mL (≈ 8.95 µM); against Staphylococcus aureus [4], 8 µg/mL (≈ 8.95 µM); in the assay with Enterococcus faecium [5], 4 µg/mL (≈ 4.47 µM); in the assay with Enterococcus faecium [6], 4 µg/mL (≈ 4.47 µM). Moreover, the Activity with Staphylococcus aureus [7] turned out to be 100%.
With `CC(C)[C@@H]1NC(=O)[C@@H]2[C@H](C)CCN2C(=O)CN/C(=N\[C@H](C(=O)N[C@H](C(=O)N[C@H](CC(=O)N2CCN(C(=O)OC(C)(C)C)CC2)c2nccs2)[C@@H](C)c2ccccc2)C(C)(C)C)[C@H](C(C)(C)C)NC1=O`, the MIC against Staphylococcus aureus [1] was 8 µg/mL (≈ 8.19 µM); against Staphylococcus aureus [2], 4 µg/mL (≈ 4.09 µM); with Staphylococcus aureus [3], 8 µg/mL (≈ 8.19 µM); against Staphylococcus aureus [4], 8 µg/mL (≈ 8.19 µM); in the assay on Enterococcus faecium [5], 8 µg/mL (≈ 8.19 µM); in the assay with Enterococcus faecium [6] it was 4 µg/mL (≈ 4.09 µM). For the same compound, the Activity in the assay with Staphylococcus aureus [7] is 42%.
Take `C#CCN1CCN(C(=O)C[C@@H](NC(=O)[C@@H](NC(=O)[C@@H](/N=C2\NCC(=O)N3CC[C@@H](C)[C@H]3C(=O)N[C@@H](C(C)C)C(=O)N[C@H]2C(C)(C)C)C(C)(C)C)[C@@H](C)c2ccccc2)c2nccs2)CC1`: the MIC in the assay on Staphylococcus aureus [1] was 16 µg/mL (≈ 17.5 µM); against Staphylococcus aureus [2], 16 µg/mL (≈ 17.5 µM); against Staphylococcus aureus [3], 16 µg/mL (≈ 17.5 µM); in the assay on Staphylococcus aureus [4] it was 32 µg/mL (≈ 35 µM); with Enterococcus faecium [5], 16 µg/mL (≈ 17.5 µM); in the assay with Enterococcus faecium [6], 16 µg/mL (≈ 17.5 µM). Further, the Activity with Staphylococcus aureus [7] was found to be 67%.
Take `CC(C)[C@@H]1NC(=O)[C@@H]2[C@H](C)CCN2C(=O)CN/C(=N\[C@H](C(=O)N[C@H](C(=O)N[C@H](CC(=O)N2CCN(Cc3ccccc3)CC2)c2nccs2)[C@@H](C)c2ccccc2)C(C)(C)C)[C@H](C(C)(C)C)NC1=O`: the MIC with Staphylococcus aureus [1], against Staphylococcus aureus [2], in the assay with Staphylococcus aureus [3], in the assay on Staphylococcus aureus [4], in the assay with Enterococcus faecium [5] and in the assay with Enterococcus faecium [6] was 4 µg/mL (≈ 4.14 µM) in each case. Besides, in the assay on Staphylococcus aureus [7], the Activity was 84%.
As for `CC(C)[C@@H]1NC(=O)[C@@H]2[C@H](C)CCN2C(=O)CN/C(=N\[C@H](C(=O)N[C@H](C(=O)N[C@H](CNC(=O)N2CCSC2)c2nccs2)[C@@H](C)c2ccccc2)C(C)(C)C)[C@H](C(C)(C)C)NC1=O`, the MIC in the assay with Staphylococcus aureus [1] turned out to be 4 µg/mL (≈ 4.47 µM); against Staphylococcus aureus [2] it was 4 µg/mL (≈ 4.47 µM); in the assay on Staphylococcus aureus [3], 4 µg/mL (≈ 4.47 µM); against Staphylococcus aureus [4] it was 4 µg/mL (≈ 4.47 µM); against Enterococcus faecium [5], 4 µg/mL (≈ 4.47 µM); with Enterococcus faecium [6] it was 2 µg/mL (≈ 2.23 µM). In the assay on Staphylococcus aureus [7], the Activity amounted to 100%.
Turning to `CC(C)[C@@H]1NC(=O)[C@@H]2[C@H](C)CCN2C(=O)CN/C(=N\[C@H](C(=O)N[C@H](C(=O)N[C@H](CNC(=O)NCc2ccccc2)c2nccs2)[C@@H](C)c2ccccc2)C(C)(C)C)[C@H](C(C)(C)C)NC1=O`, the MIC amounted to 8 µg/mL (≈ 8.76 µM) against Staphylococcus aureus [1]; 16 µg/mL (≈ 17.5 µM) in the assay with Staphylococcus aureus [2]; 16 µg/mL (≈ 17.5 µM) against Staphylococcus aureus [3]; 16 µg/mL (≈ 17.5 µM) with Staphylococcus aureus [4]; 8 µg/mL (≈ 8.76 µM) in the assay on Enterococcus faecium [5]; 4 µg/mL (≈ 4.38 µM) against Enterococcus faecium [6]. In addition, the Activity with Staphylococcus aureus [7] was determined as 100%.
With `CCSC(=O)C[C@@H](NC(=O)[C@@H](NC(=O)[C@@H](/N=C1\NCC(=O)N2CC[C@@H](C)[C@H]2C(=O)N[C@@H](C(C)C)C(=O)N[C@H]1C(C)(C)C)C(C)(C)C)[C@@H](C)c1ccccc1)c1nccs1`, the MIC was at most 0.25 µg/mL in the assay with Staphylococcus aureus [1]; 0.5 µg/mL (≈ 0.586 µM) with Staphylococcus aureus [2]; at most 0.25 µg/mL with Staphylococcus aureus [3]; 0.5 µg/mL (≈ 0.586 µM) in the assay with Staphylococcus aureus [4]; at most 0.25 µg/mL in the assay on Enterococcus faecium [5]; at most 0.25 µg/mL against Enterococcus faecium [6]. In addition, the Activity in the assay on Staphylococcus aureus [7] is reported as 0%.
Turning to `CCCSC(=O)C[C@@H](NC(=O)[C@@H](NC(=O)[C@@H](/N=C1\NCC(=O)N2CC[C@@H](C)[C@H]2C(=O)N[C@@H](C(C)C)C(=O)N[C@H]1C(C)(C)C)C(C)(C)C)[C@@H](C)c1ccccc1)c1nccs1`, the MIC is 0.5 µg/mL (≈ 0.577 µM) with Staphylococcus aureus [1]; 0.5 µg/mL (≈ 0.577 µM) against Staphylococcus aureus [2]; at most 0.25 µg/mL against Staphylococcus aureus [3]; 1 µg/mL (≈ 1.15 µM) in the assay with Staphylococcus aureus [4]; 1 µg/mL (≈ 1.15 µM) in the assay on Enterococcus faecium [5]; at most 0.25 µg/mL against Enterococcus faecium [6]. For the same compound, the Activity in the assay on Staphylococcus aureus [7] came to 0%.
Turning to `CC(C)SC(=O)C[C@@H](NC(=O)[C@@H](NC(=O)[C@@H](/N=C1\NCC(=O)N2CC[C@@H](C)[C@H]2C(=O)N[C@@H](C(C)C)C(=O)N[C@H]1C(C)(C)C)C(C)(C)C)[C@@H](C)c1ccccc1)c1nccs1`, the MIC is 0.5 µg/mL (≈ 0.577 µM) in the assay with Staphylococcus aureus [1]; 0.5 µg/mL (≈ 0.577 µM) against Staphylococcus aureus [2]; 0.5 µg/mL (≈ 0.577 µM) in the assay on Staphylococcus aureus [3]; 1 µg/mL (≈ 1.15 µM) in the assay with Staphylococcus aureus [4]; 1 µg/mL (≈ 1.15 µM) against Enterococcus faecium [5]; at most 0.25 µg/mL in the assay with Enterococcus faecium [6]. Moreover, in the assay with Staphylococcus aureus [7], the Activity is given as 0%.
As for `CCCC(=O)C[C@@H](NC(=O)[C@@H](NC(=O)[C@@H](/N=C1\NCC(=O)N2CC[C@@H](C)[C@H]2C(=O)N[C@@H](C(C)C)C(=O)N[C@H]1C(C)(C)C)C(C)(C)C)[C@@H](C)c1ccccc1)c1nccs1`, the MIC in the assay on Staphylococcus aureus [1] is 1 µg/mL (≈ 1.2 µM); in the assay on Staphylococcus aureus [2] it was 1 µg/mL (≈ 1.2 µM); against Staphylococcus aureus [3] it was 1 µg/mL (≈ 1.2 µM); against Staphylococcus aureus [4] it was 2 µg/mL (≈ 2.39 µM); in the assay with Enterococcus faecium [5], 2 µg/mL (≈ 2.39 µM); against Enterococcus faecium [6], 0.5 µg/mL (≈ 0.599 µM). The Activity with Staphylococcus aureus [7] came to 100%.
`CCC(=O)C[C@@H](NC(=O)[C@@H](NC(=O)[C@@H](/N=C1\NCC(=O)N2CC[C@@H](C)[C@H]2C(=O)N[C@@H](C(C)C)C(=O)N[C@H]1C(C)(C)C)C(C)(C)C)[C@@H](C)c1ccccc1)c1nccs1`: the MIC against Staphylococcus aureus [1] came out at 1 µg/mL (≈ 1.22 µM); in the assay with Staphylococcus aureus [2], 1 µg/mL (≈ 1.22 µM); in the assay with Staphylococcus aureus [3], 2 µg/mL (≈ 2.44 µM); against Staphylococcus aureus [4], 2 µg/mL (≈ 2.44 µM); against Enterococcus faecium [5], 2 µg/mL (≈ 2.44 µM); against Enterococcus faecium [6], 1 µg/mL (≈ 1.22 µM). Besides, in the assay on Staphylococcus aureus [7], the Activity turned out to be 100%.
